In ChEMBL document CHEMBL1201862, “PubChem BioAssay data set” (2004):
Activity calls are given as the source filed them.

What was measured:
[1] = inhibitors of firefly luciferase expression or activity, dose response, H4 neuroglioma cells, luminescence (AID 1990); format: functional, cell-based
[2] = system: BJ; test: cytotoxicity toward BJ-TERT fibroblasts, dose response, cell-based, RAS-independent, luminescence (AID 1933); format: functional; conditions: Homo sapiens
[3] = Luminescence Cell-Based Dose Response HTS to Identify Inhibitors of 5'UTR Stem-Loop Driven Prion Protein mRNA Translation in H4 Neuroglioblastoma Cells. [Related pubchem assays: 1827 (Project Summary), 1813 (Primary HTS)]; format: functional
[4] = inhibitors of SNCA 5'UTR-driven reporter translation, confirmation, H4 neuroglioma cells, luminescence (AID 1988); format: functional, cell-based
[5] = system: BJ; test: cells; format: functional, cell-based; conditions: Homo sapiens
[6] = system: BJ; test: cytotoxicity toward BJ-TERT-LT-ST fibroblasts, dose response, cell-based, RAS-independent, luminescence (AID 1935); format: functional; conditions: Homo sapiens;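 note: BJ fibroblasts immortalized with TERT plus LT and ST oncogenes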
[7] = cytotoxicity toward DRD oncogenic fibroblasts, dose response, cell-based, non-viral oncogenic, luminescence (AID 1934); format: functional; conditions: Homo sapiens
[8] = cytotoxicity in HEK-293T cells, dose response, cytotoxicity control for TCR NF-kB inhibitor project, luminescence, T-cell screen hits (AID 489026); format: functional, cell-based;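 note: cells exposed to compound about 14 hours before the viability readout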
[9] = target: T1, Peroxisome proliferator-activated receptor gamma/Nuclear receptor coactivator 2 (Homo sapiens, UniProt P37231); format: functional
[10] = target: T2, Peroxisome proliferator-activated receptor gamma/Nuclear receptor coactivator 1 (Homo sapiens, UniProt P37231); format: functional
[11] = target: T3, Peroxisome proliferator-activated receptor gamma/Nuclear receptor coactivator 3 (Homo sapiens, UniProt P37231); format: functional
[12] = Luminescence Cell-Based Dose Confirmation HTS to Identify Activators of 5'UTR Stem-Loop Driven Alpha-Synuclein mRNA Translation in H4 Neuroglioblastoma Cells. [Related pubchem assays: 1829 (Project Summary), 1814 (Primary HTS)]; format: functional
[13] = Luminescence Cell-Based Dose Response HTS to Identify Activators of Luciferase Translation or Activity in H4 […] Cells. [Related pubchem assays: 1829 (Project Summary), 1814 (Primary HTS)]; format: functional
[14] = system: H4; test: Luminescence Cell-Based Dose Response HTS to Identify Activators of 5'UTR Stem-Loop Driven Prion Protein mRNA Translation in H4 Neuroglioblastoma Cells. [Related pubchem assays: 1829 (Project Summary), 1814 (Primary HTS)]; format: functional; conditions: Homo sapiens
[15] = inhibitors of Vif binding to APOBEC3G peptide, primary screen, biochemical, TR-FRET, GST-Vif 1-94, biotin-A3G peptide, dose response retest (AID 1117319); format: functional;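 note: TR-FRET signal of purified GST-Vif binding a biotinylated A3G peptide; inhibitors lower the FRET signal by blocking Vif and A3G binding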
[16] = target: T4, Bcl-2-related protein A1 (Mus musculus, UniProt Q07440); format: functional;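 note: confirmatory dose–response counterscreen on Bfl-1, used to check hits from a UBC13 polyubiquitin inhibitor campaign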
T4 sequence (Q07440 whole entry): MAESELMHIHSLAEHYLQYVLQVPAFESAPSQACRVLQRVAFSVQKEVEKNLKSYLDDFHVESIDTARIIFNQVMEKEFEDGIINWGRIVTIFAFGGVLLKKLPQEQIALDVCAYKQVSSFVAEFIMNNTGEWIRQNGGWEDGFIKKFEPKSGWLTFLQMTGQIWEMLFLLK

[17] = target: T5, Ubiquitin-conjugating enzyme E2 N (Homo sapiens, UniProt P61088); format: functional
T5 sequence (P61088 whole entry): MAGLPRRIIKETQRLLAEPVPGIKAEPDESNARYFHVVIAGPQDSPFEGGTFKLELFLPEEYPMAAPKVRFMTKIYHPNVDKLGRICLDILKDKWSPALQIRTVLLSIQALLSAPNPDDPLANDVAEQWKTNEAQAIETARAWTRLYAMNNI

[18] = target: T5, Ubiquitin-conjugating enzyme E2 N; format: functional; remark: listed apart in the source
[19] = target: Mitogen-activated protein kinase 10 (Homo sapiens, UniProt P53779); test: Dose response biochemical screening assay for inhibitors of c-Jun N-Terminal Kinase 3 (JNK3). [Related pubchem assays: 746 ]
[20] = target: T6, Aminopeptidase N (Plasmodium falciparum FcB1/Columbia, UniProt O96935); test: P. falciparum M1AAP inhibitors, biochemical, fluorogenic H-Leu-NHMec substrate, 1536-well (AID 1445); parameters: species or system Plasmodium falciparum 3D7, 3D7
T6 sequence (O96935 whole entry): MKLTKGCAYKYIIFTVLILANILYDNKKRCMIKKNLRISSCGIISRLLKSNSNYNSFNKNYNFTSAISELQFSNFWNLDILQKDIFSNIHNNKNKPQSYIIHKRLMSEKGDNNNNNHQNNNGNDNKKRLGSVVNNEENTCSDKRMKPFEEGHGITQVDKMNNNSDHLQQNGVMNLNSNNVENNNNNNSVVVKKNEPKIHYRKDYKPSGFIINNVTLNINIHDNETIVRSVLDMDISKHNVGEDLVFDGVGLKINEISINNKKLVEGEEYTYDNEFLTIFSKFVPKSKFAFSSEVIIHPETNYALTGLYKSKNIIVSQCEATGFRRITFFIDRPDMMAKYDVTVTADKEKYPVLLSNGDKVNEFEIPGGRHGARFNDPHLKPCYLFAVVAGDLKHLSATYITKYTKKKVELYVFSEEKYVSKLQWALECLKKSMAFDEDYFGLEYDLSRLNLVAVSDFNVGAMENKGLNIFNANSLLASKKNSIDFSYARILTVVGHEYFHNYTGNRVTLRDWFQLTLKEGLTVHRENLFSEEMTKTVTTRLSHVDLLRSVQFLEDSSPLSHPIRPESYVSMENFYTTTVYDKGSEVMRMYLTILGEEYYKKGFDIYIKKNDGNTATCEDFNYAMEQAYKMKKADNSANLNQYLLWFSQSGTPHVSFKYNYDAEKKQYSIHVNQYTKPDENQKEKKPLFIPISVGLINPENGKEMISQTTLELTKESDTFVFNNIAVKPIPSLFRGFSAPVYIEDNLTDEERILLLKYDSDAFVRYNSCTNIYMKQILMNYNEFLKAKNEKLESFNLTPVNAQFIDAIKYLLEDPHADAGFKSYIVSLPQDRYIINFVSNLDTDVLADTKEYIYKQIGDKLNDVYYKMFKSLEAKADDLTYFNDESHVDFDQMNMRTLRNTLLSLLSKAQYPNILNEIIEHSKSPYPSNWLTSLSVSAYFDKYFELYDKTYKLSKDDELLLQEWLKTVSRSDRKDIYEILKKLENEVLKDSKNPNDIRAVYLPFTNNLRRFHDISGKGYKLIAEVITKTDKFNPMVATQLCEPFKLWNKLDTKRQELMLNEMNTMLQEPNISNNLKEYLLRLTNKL

[21] = target: T2, Peroxisome proliferator-activated receptor gamma/Nuclear receptor coactivator 1; test: (§1) TR-FRET dose response biochemical High Throughput Screening assay for agonists of the steroid receptor coactivator 1 (SRC-1) recruitment by the peroxisome proliferator-activated receptor gamma (PPAR gamma): non-selective agonists. [Related pubchem assays (depositor defined):AID1300, AID1808, AID504735, AID631]; format: protein assay
[22] = target: T3, Peroxisome proliferator-activated receptor gamma/Nuclear receptor coactivator 3; test: as §1, with “3 (SRC-3)” for “1 (SRC-1)”, “assays: 1301 (Confirmation screen.), 1048 (Primary screen.)]” for “assays (depositor defined):AID1300, AID1808, AID504735, AID631]”; format: functional
[23] = target: T1, Peroxisome proliferator-activated receptor gamma/Nuclear receptor coactivator 2; test: TR-FRET dose response biochemical High Throughput Screening assay for agonists of the steroid receptor coactivator 2 (SRC-2) recruitment by the peroxisome proliferator-activated receptor gamma (PPAR gamma): non-selective agonists. [Related pubchem assays: 1297, 1032 ]; format: functional

T1 sequence (P37231 whole entry): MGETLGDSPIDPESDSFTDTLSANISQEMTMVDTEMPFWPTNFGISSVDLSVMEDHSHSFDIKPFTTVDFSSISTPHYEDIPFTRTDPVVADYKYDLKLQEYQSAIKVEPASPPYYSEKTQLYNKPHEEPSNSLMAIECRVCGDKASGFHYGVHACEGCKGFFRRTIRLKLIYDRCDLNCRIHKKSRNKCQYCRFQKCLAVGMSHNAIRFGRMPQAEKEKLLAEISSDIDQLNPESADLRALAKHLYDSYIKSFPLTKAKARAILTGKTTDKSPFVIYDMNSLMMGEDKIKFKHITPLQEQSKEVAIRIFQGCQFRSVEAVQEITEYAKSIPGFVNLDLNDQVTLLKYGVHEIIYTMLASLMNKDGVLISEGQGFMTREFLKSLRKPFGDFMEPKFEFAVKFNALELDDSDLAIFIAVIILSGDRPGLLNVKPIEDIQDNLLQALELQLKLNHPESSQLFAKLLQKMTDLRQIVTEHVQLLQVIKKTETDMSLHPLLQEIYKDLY
T1 sequence (Q15596 whole entry, further chain): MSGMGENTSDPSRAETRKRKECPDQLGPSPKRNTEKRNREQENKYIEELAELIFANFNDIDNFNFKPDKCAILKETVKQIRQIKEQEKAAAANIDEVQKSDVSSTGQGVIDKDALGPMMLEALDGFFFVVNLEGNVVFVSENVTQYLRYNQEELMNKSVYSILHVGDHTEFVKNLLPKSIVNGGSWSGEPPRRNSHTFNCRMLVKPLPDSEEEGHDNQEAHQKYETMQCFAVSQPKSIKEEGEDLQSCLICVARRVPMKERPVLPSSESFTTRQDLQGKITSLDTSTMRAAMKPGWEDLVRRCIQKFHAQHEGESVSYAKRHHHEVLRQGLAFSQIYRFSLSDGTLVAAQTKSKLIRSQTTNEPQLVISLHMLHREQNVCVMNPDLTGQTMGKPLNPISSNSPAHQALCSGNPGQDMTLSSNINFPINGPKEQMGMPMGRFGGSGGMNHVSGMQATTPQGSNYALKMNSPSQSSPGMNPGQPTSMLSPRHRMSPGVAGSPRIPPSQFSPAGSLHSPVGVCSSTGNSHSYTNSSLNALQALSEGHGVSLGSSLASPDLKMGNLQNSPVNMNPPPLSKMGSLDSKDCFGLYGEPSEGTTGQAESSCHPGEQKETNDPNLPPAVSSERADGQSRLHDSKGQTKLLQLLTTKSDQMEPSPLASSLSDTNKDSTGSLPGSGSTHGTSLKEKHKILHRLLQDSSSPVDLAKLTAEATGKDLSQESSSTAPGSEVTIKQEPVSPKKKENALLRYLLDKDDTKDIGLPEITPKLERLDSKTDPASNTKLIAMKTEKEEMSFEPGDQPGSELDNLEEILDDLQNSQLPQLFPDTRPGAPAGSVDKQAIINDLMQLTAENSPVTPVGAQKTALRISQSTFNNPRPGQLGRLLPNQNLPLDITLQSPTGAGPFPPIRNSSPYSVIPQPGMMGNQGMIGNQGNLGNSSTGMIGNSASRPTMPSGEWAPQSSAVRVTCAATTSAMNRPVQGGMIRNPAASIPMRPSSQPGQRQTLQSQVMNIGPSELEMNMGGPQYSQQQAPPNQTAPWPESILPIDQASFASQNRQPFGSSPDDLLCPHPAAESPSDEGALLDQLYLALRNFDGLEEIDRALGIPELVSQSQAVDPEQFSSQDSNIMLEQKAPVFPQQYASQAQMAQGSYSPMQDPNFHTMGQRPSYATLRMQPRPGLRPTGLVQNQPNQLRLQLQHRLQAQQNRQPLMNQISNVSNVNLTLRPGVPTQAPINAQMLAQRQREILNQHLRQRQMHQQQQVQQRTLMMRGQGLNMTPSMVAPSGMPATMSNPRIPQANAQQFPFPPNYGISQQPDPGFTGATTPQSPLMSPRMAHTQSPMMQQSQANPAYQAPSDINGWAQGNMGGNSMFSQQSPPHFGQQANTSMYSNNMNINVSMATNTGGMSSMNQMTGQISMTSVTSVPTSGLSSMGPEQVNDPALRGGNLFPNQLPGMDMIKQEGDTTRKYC
T2 sequence (P37231 whole entry): as the sequence (P37231 whole entry) above
T2 sequence (Q15788 whole entry, further chain): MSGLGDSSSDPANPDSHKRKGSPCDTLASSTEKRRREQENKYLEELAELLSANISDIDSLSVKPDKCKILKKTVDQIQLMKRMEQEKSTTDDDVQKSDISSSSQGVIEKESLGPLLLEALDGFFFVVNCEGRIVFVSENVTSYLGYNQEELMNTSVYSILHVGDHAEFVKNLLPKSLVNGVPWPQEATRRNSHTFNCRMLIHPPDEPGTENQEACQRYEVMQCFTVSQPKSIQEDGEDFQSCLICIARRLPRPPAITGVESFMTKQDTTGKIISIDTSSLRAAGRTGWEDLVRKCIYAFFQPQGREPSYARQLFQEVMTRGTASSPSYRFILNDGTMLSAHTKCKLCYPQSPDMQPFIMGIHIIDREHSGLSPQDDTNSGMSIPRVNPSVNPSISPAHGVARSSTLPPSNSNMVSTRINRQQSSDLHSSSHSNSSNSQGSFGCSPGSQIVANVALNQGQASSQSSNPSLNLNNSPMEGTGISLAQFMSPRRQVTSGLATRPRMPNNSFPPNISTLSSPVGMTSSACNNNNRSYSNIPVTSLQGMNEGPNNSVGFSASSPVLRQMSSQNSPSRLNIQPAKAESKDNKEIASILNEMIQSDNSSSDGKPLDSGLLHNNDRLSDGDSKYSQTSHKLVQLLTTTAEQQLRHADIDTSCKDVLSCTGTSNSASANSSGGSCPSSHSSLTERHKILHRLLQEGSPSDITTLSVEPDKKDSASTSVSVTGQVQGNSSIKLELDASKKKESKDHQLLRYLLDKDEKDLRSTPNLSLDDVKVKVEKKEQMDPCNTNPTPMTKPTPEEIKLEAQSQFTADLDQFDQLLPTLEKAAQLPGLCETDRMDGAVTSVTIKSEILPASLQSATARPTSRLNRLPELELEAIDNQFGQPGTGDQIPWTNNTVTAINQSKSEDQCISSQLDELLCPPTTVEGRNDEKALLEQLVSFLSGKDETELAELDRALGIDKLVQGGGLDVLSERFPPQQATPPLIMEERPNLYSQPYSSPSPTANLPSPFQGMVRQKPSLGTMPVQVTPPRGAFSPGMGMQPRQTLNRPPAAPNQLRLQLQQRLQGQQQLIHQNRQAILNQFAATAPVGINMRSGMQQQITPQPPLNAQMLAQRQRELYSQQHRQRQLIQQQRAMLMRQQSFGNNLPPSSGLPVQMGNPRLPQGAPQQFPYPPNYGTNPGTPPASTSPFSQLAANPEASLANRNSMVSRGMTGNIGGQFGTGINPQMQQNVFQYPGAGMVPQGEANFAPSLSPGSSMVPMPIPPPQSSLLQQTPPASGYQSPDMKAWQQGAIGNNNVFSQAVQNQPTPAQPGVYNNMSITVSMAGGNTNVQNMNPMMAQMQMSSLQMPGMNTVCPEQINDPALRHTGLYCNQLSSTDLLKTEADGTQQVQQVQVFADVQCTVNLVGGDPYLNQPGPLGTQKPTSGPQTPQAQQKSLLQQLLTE
Chain of Mitogen-activated protein kinase 10 (P53779 whole entry): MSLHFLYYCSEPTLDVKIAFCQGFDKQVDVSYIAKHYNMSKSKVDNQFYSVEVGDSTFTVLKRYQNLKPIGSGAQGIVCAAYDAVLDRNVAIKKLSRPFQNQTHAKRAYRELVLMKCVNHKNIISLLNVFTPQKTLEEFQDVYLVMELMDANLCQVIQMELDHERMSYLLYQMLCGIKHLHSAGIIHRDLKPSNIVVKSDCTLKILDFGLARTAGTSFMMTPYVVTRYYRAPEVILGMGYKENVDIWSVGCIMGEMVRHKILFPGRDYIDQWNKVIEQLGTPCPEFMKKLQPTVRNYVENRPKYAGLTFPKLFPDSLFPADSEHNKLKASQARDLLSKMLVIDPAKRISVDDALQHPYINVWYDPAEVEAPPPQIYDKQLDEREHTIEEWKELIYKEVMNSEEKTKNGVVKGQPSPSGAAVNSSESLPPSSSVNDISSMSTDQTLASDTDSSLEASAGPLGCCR

SMILES: Cc1cccc(N2CCN(C(=O)c3c(-c4ccccc4)noc3C)CC2)c1C
- EC50 [1]: 10.9 µM (active)
- EC50 [2]: 4.1 µM (active)
- EC50 [3]: 17.1 µM (active)
- EC50 [4]: 6.76 µM (active)
- EC50 [5]: 89.6 µM (active)
- EC50 [6]: 2.67 µM (active)
- EC50 [7]: 2.58 µM (active)
- IC50 [8]: > 80 µM (inactive)

SMILES: CC(C)CNC(=O)COC(=O)c1ccccc1OCC(=O)Nc1ccc(Br)cc1
- EC50 [9]: > 79.4 µM (not active)
- EC50 [10]: > 79.4 µM (not active)
- EC50 [11]: > 79.4 µM (not active)

SMILES: Cc1ccc(-c2csc(NC(=O)Cc3cccs3)n2)cc1C
- EC50 [12]: 10.2 µM (active)
- EC50 [13]: 28.7 µM (active)
- EC50 [14]: 15.1 µM (active)
- IC50 [15]: > 100 µM (active)

SMILES: CCOC(=O)C1=C(COC(=O)c2ncc(Cl)c(Cl)c2Cl)NC(=O)NC1C (stereo not given)
- IC50 [16]: > 20 µM (inactive)
- IC50 [17]: 7.88 µM (active)
- IC50 [18]: 9.23 µM (active)

SMILES: COc1ccc(COC(=O)c2[nH]nc3ccccc23)cc1F
- IC50 [19]: 11.4 µM (not active)

SMILES: COc1ccccc1OCc1nc2ccccc2[nH]1
- EC50 [9]: > 79.4 µM (not active)
- EC50 [10]: > 79.4 µM (not active)
- EC50 [11]: > 79.4 µM (not active)

SMILES: COc1ccc(NC(=O)C2C3C=CC(C3)C2C(=O)NCc2ccco2)c(OC)c1 (stereo not given)
- IC50 [20]: 89.2 µM (active)

SMILES: O=C(C1=C[C@@H](c2ccc(C(F)(F)F)cc2)C[C@@H](OCc2ccc(CO)cc2)O1)N1CCOCC1
- EC50 [9]: > 79.4 µM (not active)
- EC50 [10]: > 79.4 µM (not active)
- EC50 [11]: > 79.4 µM (not active)

SMILES: CCn1c(=O)cc(SCC(=O)Nc2ccc3c(c2)OCCO3)c2ccccc21
- EC50 [21]: 7.45 µM (active)
- EC50 [22]: > 79.4 µM (not active)
- EC50 [23]: 7.21 µM (active)

SMILES: Cn1ncc2c(NCc3ccccc3)ncnc21
- IC50 [19]: > 31 µM (not active)
